Measurements: patent EP4781986A1, “PHARMACEUTICAL COMPOSITION HAVING IMPROVED PHARMACOKINETIC PROPERTIES” (Sichuan Purity Pharmaceutical Co., Ltd., priority 2023, dated 2025)
Like-named read-outs stand apart in the source and are kept apart here. One block for each compound: values may come before it.

Experiments:
[1] = test system: Plasma of cynomolgus monkey; assay: plasma protein binding rate test, equilibrium dialysis (monkey); format: in vitro ADME; conditions: 1 µM, 37°C, 6 hours
Method: Protein binding rates of the compound of the present invention in plasma of rat, monkey and human were determined by an equilibrium dialysis method. Tested compounds of the present invention were the compounds in Examples 6 and 8.
3.1 A dry dialysis membrane was rinsed with ultrapure water for 2-3 times, and then soaked in a phosphate buffer for 1 hour for later use. Polytetrafluoroethylene module was soaked in 20% ethanol for 30 minutes, and then surface moisture was dried with dust-free paper for later use. The pretreated dialysis membrane was assembled into a dialysis plate according to the product specification, and one side (receptor compartment) of an osmotic membrane in each dialysis well was added with 100 µL of receptor fluid (100 mM phosphate buffer solution plus 0.002% Tween 80).
3.2 The plasma was put into a centrifuge tube, a working solution of a tested substance was added into the plasma, wherein a final concentration was 1 µM, and the mixture was turned upside down and mixed evenly (this step was carried out in ice bath). 20 µL of drug-containing plasma each was taken, and was respectively transferred to a 96-well sample plate according to two parts in parallel, and stored in a refrigerator at -20°C as a T0 sample.
3.3 Another 100 µL of the above drug-containing plasma was transferred to the other side (sample compartment) of the membrane in the dialysis device according to two parts in parallel, and incubated under vibration at a constant temperature of 37°C for 6 hours. […]
A plasma protein binding rate and a recovery rate of the compound in plasma were calculated by the following formulas: dissociation percentage (%) = CB /CA; [formula] plasma protein binding rate (fb%) = 1−dissociation percentage (%); [formula] recovery rate (%) = (CB+CA)/CT0 [formula] wherein CB was a concentration of the compound in the receptor fluid after equilibrium dialysis; CA was a concentration of the compound in the drug-containing plasma after equilibrium dialysis; and CT0 was an initial concentration of the compound in plasma.

[2] = stability test in liver microsomes (rat); format: in vitro ADME; conditions: Rat liver microsomes
Method: The stability of the compound of the present invention in liver microsomes of rat, monkey and human was determined. Tested compounds of the present invention were the compounds in Examples 6 and 8 , and a control drug was Zavegepant.
3.2 An appropriate amount of liver microsome solution was transferred into a 1 mL 96-deep-well plate, added with a tested drug liquid (or a probe substrate solution), and pre-incubated in a thermal mixer at 37°C for 5 minutes. Two parts of mixed solutions were taken out from the system and added with 1×PBS to replace NADPH, and the mixed solutions were taken out at 0 and 60 minutes respectively, and added with methanol (containing an internal standard) to terminate the reaction. In the remaining mixed system, each well was added with NADPH to start the reaction. In the tested substance group, mixed solutions were taken out from the system at 0, 5, 15, 30, 45 and 60 minutes, and in the control group, mixed solutions were taken out from the system at 0, 30 and 60 minutes, and the mixed solutions were added methanol (containing an internal standard) to terminate the reaction. All samples of the terminated reaction were mixed evenly and centrifuged in a centrifuge at 3800 rpm for 15 minutes, and the supernatant was taken for LC-MS/MS analysis.
A peak area was determined by an extracted ion chromatogram. A slope value k was determined by linear regression of a remaining percentage of a parent drug relative to a natural logarithm of an incubation time curve. According to the slope, in-vitro half-life periods (t1/2) were respectively calculated, and in-vitro intrinsic clearance rates (CLint, represented by µL/min/mg protein) were calculated. Calculation formulas were as follows: t1/2 = ln2/k = 0.693/k; and CLint = 0.693/t1/2 /liver microsome protein concentration [formula]

[3] = PK properties in monkeys with or without alkyl glycoside, intravenous route and nasal spray; format: in vivo, cynomolgus monkey; conditions: for bioavailability / Tmax / AUC / Cmax / half-life / Vd: cynomolgus monkey, plasma; for bioavailability: read-out: Bioavailability F%; for Tmax: read-out: Time to peak Tmax; for AUC: read-out: Area under curve AUC; for Cmax: read-out: Concentration to peak Cmax; for half-life: read-out: Half-life period t1/2 (converted); for Vd: read-out: Volume of distribution steady-state Vss; for Tmax(DDM 0.2%)/ Tmax(DDM 0%) / onset time (Tmax) shortened by: monkeys, intranasal; for Tmax(DDM 0.2%)/ Tmax(DDM 0%): 0.2% DDM vs without DDM; for onset time (Tmax) shortened by: with vs without alkyl glycoside
Method: Species: cynomolgus monkey, male, 2-5 kg. Source: Ankai Yibo (Zhanjiang) Biotechnology Co., Ltd., Laboratory Animal Production License No.: SCXK (Yue) 2019-0046. Quantity: 3 cynomolgus monkeys were intravenously administered and 3 cynomolgus monkeys were administered by a nasal spray.
2.1 An appropriate amount of drug was accurately weighed and added with 50 mM succinate buffer (diluted with D5W, pH=5-6), and mixed evenly and dissolved fully in an ultrasonic and vortexed mode to obtain a 0.5 mg/mL drug solution for intravenous administration.
(§1) 2.2 An appropriate amount of drug was accurately weighed and added with a solvent 1: 50 mM succinate buffer (diluted with pure water, pH=5-6), and mixed evenly and dissolved fully in an ultrasonic and vortexed mode to obtain a 20 mg/mL drug solution, which was put into a nasal spraying device for administration by the nasal spray, 100 µL/spray.
as §1, with “2.3” for “2.2”, “2:” for “1:”, “(pH=5-6) containing 0.2% dodecyl-β-D-maltoside,” for “(diluted with pure water, pH=5-6),”
5 minutes, 10 minutes, 15 minutes, 0.5 hour, 1 hour, 2 hours, 4 hours, 6 hours, 8 hours, 10 hours, 12 hours and 24 hours after administration.
Blood was collected through a saphenous vein or a cephalic vein, about 0.6 mL of each sample was collected, EDTA-K2 was used for anticoagulation, the collected blood sample was placed on ice, and plasma was centrifugally separated within 2 hours (at 2000 g and 2-8°C for 10 minutes). The collected plasma samples were stored in a refrigerator at -80°C before analysis, and the remaining plasma samples after analysis were continuously stored in the refrigerator at -80°C for temporary storage.
A concentration of a specified compound in plasma was determined by LC-MS/MS, and main pharmacokinetic parameters were calculated by a Winnolin 8.3 non-compartmental model. When the pharmacokinetic parameters were calculated, BLQ before Cmax (comprising "No peak") was calculated as 0; and BLQ (comprising "No peak") after Cmax was excluded from the calculation.

[4] = cynomolgus monkeys, IV@0.5 mg/kg
[5] = male, other: intranasal (nasal spray), 1 mg/kg, cynomolgus monkeys, IN@1 mg/kg (Solvent 1, no DDM)
[6] = male, other: intranasal (nasal spray), 1 mg/kg, cynomolgus monkeys, IN@1 mg/kg (Solvent 2, 0.2% dodecyl-β-D-maltoside)
[7] = male, other: intranasal (nasal spray), cynomolgus monkeys, IN@1 mg/kg (Solvent 2, 0.2% dodecyl-β-D-maltoside)
[8] = male, other: nasal spray (intranasal), cynomolgus monkeys, IN@1 mg/kg (Solvent 1, no DDM)
[9] = male, cynomolgus monkeys, IV@0.5 mg/kg
[10] = 1 mg/kg, cynomolgus monkeys, IN@1 mg/kg (Solvent 1, no DDM)
[11] = 1 mg/kg, cynomolgus monkeys, IN@1 mg/kg (Solvent 2, 0.2% dodecyl-β-D-maltoside)
[12] = iv, 0.5 mg/kg, cynomolgus monkeys, IV@0.5 mg/kg

- fb (%) [1]: 47.7%
- % remaining (60 min) [2]: 90.7%
- Apparent clearance CL [3, 4]: 9.27 mL/min/kg
- bioavailability [3, 5]: 2.5%
- Tmax [3, 5]: 60 min
- bioavailability [3, 6]: 26.4%
- Tmax [3, 6]: ~10.2 min
- AUC [3, 7]: 412 ng·h/mL
- Cmax [3, 7]: 401 ng/mL
- half-life [3, 7]: 295 min
- AUC [3, 8]: 46.1 ng·h/mL
- Cmax [3, 8]: 13.4 ng/mL
- half-life [3, 8]: 335 min
- AUC [3, 9]: 924 ng·h/mL
- Cmax [3, 9]: 2280 ng/mL
- half-life [3, 9]: 299 min
- Vd [3, 9]: 0.738 L/kg
- Tmax(DDM 0.2%)/ Tmax(DDM 0%) [3]: 16.7%
- onset time (Tmax) shortened by [3]: 83.3%
Structure (SMILES): Cc1cc(C[C@@H](NC(=O)N2CCC(c3cc4c([nH]c3=O)SCC4)CC2)C(=O)N2CCN(C3CCN(C)CC3)CC2)cc2cn[nH]c12 [Example 8, (R)-N-(3-(7-methyl-1H-indazole-5-yl)-1-(4-(1-methylpiperidine-4-yl)piperazine-1-yl)-1-oxopropan-2-yl)-4-(6-oxo-2,3,6,7-tetrahydrothieno[2,3-b]pyridine-5-yl)piperidine-1-formamide]

Structure (SMILES): Cc1cc(C[C@@H](NC(=O)N2CCC(c3cc4c([nH]c3=O)SCCC4)CC2)C(=O)N2CCN(C3CCN(C)CC3)CC2)cc2cn[nH]c12 [Example 6, (R)-N-(3-(7-methyl-1H-indazole-5-yl)-1-(4-(1-methylpiperidine-4-yl)piperazine-1-yl)-1-oxopropan-2-yl)-4-(7-oxo-3,4,7,8-tetrahydro-2H-thiopyrano[2,3-b]pyridine-6-yl)piperidine-1-formamide]
- fb (%) [1]: 61.3%
- CLint [2]: 2.4 µL/min/mg
- % remaining (60 min) [2]: 91.5%
- AUC [3, 10]: 43.2 ng·h/mL
- bioavailability [3, 10]: 1.99%
- Cmax [3, 10]: 12.7 ng/mL
- half-life [3, 10]: 540 min
- Tmax [3, 10]: 60 min
- AUC [3, 11]: 780 ng·h/mL
- bioavailability [3, 11]: 29.8%
- Cmax [3, 11]: 663 ng/mL
- half-life [3, 11]: 334 min
- Tmax [3, 11]: ~10.2 min
- AUC [3, 12]: 1140 ng·h/mL
- Cmax [3, 12]: 3200 ng/mL
- half-life [3, 12]: 299 min
- Vd [3, 4]: 0.652 L/kg
- Tmax(DDM 0.2%)/ Tmax(DDM 0%) [3]: 16.7%
- onset time (Tmax) shortened by [3]: 83.3%
